# In patent publication US20240360178A1, “MACROCYCLIC IMMUNOMODULATORS” (Bristol-Myers Squibb Company, priority 2021, published 2024):
# Positions of bridges follow the written chain, without caps; N, C: chain ends. Non-standard residues stand in square brackets, D forms with d. Residues, ends and D or L forms follow the SMILES beside them. ξ: configuration not given here. *: point of attachment. Phe(4-COOH) = N[C@@H](Cc1ccc(C(=O)O)cc1)C(=O)O; Bip = N[C@@H](Cc1ccc(-c2ccccc2)cc1)C(=O)O; dPro(4S-NH2) = N[C@@H]1CN[C@@H](C(=O)O)C1; Phe(3-Me) = Cc1cccc(C[C@H](N)C(=O)O)c1; Val(3-OH) = CC(C)(O)[C@H](N)C(=O)O; Ala(cPr) = N[C@@H](CC1CC1)C(=O)O; NMeF = CN[C@@H](Cc1ccccc1)C(=O)O; hPhe = N[C@@H](CCc1ccccc1)C(=O)O; ξW = NC(Cc1c[nH]c2ccccc12)C(=O)O; 4Pal = N[C@@H](Cc1ccncc1)C(=O)O; Cha = N[C@@H](CC1CCCCC1)C(=O)O; Carboxymethyl = O=C(O)C*; NMeA = CN[C@@H](C)C(=O)O; Orn = NCCC[C@H](N)C(=O)O; Dab = NCC[C@H](N)C(=O)O; Nva = CCC[C@H](N)C(=O)O; Sar = CNCC(=O)O
# Biological target: T1, human PD-1 (Jurkat-PD-1 cells) / PE-labeled human PD-L1-Ig (Homo sapiens, UniProt Q15116)
# T1 construct: expressed in transfected cells; host or cells: Jurkat cell line over-expressing human PD-1
# Test: Jurkat-PD-1 Cell Binding High-Content Screening Assay (CBA); Jurkat hPD1-PDL1 assay
# Conditions: Jurkat cell line over-expressing human PD-1; PE-labeled PD-L1-Ig 20 nM final; compound incubated 2 hours at 37° C.; read-out: Jurkat HPD1-PDL1 IC50
# Method in brief: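 Compound was added to Jurkat-PD-1 cells in DMEM plus 10% fetal calf serum and incubated 2 hours at 37° C. Binding of phycoerythrin-conjugated PD-L1-Ig (20 nM final) to the cells was imaged.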
# T1 sequence (Q15116 25-288): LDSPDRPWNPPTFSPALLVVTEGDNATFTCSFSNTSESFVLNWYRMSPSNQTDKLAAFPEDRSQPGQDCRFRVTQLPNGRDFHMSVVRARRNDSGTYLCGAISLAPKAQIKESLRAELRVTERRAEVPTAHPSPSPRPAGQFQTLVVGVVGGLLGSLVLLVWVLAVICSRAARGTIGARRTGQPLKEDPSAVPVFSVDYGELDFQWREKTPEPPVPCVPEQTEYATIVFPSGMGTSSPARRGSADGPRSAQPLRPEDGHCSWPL
row,SMILES,IC50 [µM]
1,CC(C)C[C@@H]1NC(=O)[C@H](CCCNC(=N)N)NC(=O)[C@H](Cc2ccccc2)N(C)C(=O)[C@H](C)N(C)C(=O)[C@H](CCCNC(=N)N)NC(=O)[C@H](Cc2ccc(-c3ccccc3)cc2)NC(=O)[C@H](C(C)C)NC(=O)[C@H](Cc2c[nH]c3ccccc23)NC(=O)[C@H](CC(=O)O)NC(=O)[C@H](Cc2ccc(O)cc2)NC(=O)[C@H](CO)NC(=O)CSC[C@@H](C(=O)NCC(N)=O)NC(=O)[C@H](CO)NC(=O)[C@H](C(C)C)NC1=O [Example 1062] ({CH2CO}-SYDWV[Bip]R[NMeA][NMeF]RLVSCG-NH2; thioether N-14),0.16
2,CC(C)C[C@@H]1NC(=O)[C@H](Cc2c[nH]c3ccccc23)NC(=O)[C@H](CC(=O)O)NC(=O)[C@H](Cc2ccc(O)cc2)NC(=O)[C@H](Cc2ccccc2)NC(=O)CSC[C@@H](C(=O)N[C@@H](C)C(N)=O)NC(=O)[C@H](CO)NC(=O)[C@H](C(C)C)NC(=O)[C@H](CC(C)C)NC(=O)[C@H](CC(N)=O)NC(=O)CN(C)C(=O)[C@H](C)N(C)C(=O)[C@H](C(C)C)NC(=O)[C@H](Cc2ccc(-c3ccccc3)cc2)NC1=O [Example 1252] ({CH2CO}-FYDWL[Bip]V[NMeA][Sar]NLVSCA-NH2; thioether N-14),0.19
3,CC(C)C[C@@H]1NC(=O)[C@H](Cc2c[nH]c3ccccc23)NC(=O)[C@H](CC(=O)O)NC(=O)[C@H](Cc2ccc(O)cc2)NC(=O)[C@H](Cc2ccncc2)NC(=O)CSC[C@@H](C(=O)N[C@@H](C)C(N)=O)NC(=O)[C@H](CO)NC(=O)[C@H](C(C)C)NC(=O)[C@H](CC(C)C)NC(=O)[C@H](CC(N)=O)NC(=O)[C@H]2CCCN2C(=O)[C@H](C)N(C)C(=O)[C@H](C(C)C)NC(=O)[C@H](Cc2ccc(-c3ccccc3)cc2)NC1=O [Example 1023] ({CH2CO}-[4Pal]YDWL[Bip]V[NMeA][dP]NLVSCA-NH2; thioether N-14),0.04
4,CC(C)C[C@@H]1NC(=O)[C@H](Cc2c[nH]c3ccccc23)NC(=O)[C@H](CC(=O)O)NC(=O)[C@H](Cc2ccc(O)cc2)NC(=O)[C@H](CCc2ccccc2)NC(=O)CSC[C@@H](C(=O)N[C@@H](C)C(N)=O)NC(=O)[C@H](CO)NC(=O)[C@H](C(C)C)NC(=O)[C@H](CC(C)C)NC(=O)[C@H](CC(N)=O)NC(=O)CN(C)C(=O)[C@H](C)N(C)C(=O)[C@H](C(C)C)NC(=O)[C@H](Cc2ccc(-c3ccccc3)cc2)NC1=O [Example 1070] ({CH2CO}-[hPhe]YDWL[Bip]V[NMeA][Sar]NLVSCA-NH2; thioether N-14),0.18
5,CC(C)C[C@@H]1NC(=O)[C@H](CCCNC(=N)N)NC(=O)[C@H](Cc2ccccc2)N(C)C(=O)[C@H](C)N(C)C(=O)[C@H](CCCNC(=N)N)NC(=O)[C@H](Cc2ccc(-c3ccccc3)cc2)NC(=O)[C@H](C(C)C)NC(=O)[C@H](Cc2c[nH]c3ccccc23)NC(=O)[C@H](CC(=O)O)NC(=O)[C@H](Cc2ccc(O)cc2)NC(=O)[C@H](CCC(N)=O)NC(=O)CSC[C@@H](C(=O)NCC(N)=O)NC(=O)[C@H](CO)NC(=O)[C@H](C(C)C)NC1=O [Example 1057] ({CH2CO}-QYDWV[Bip]R[NMeA][NMeF]RLVSCG-NH2; thioether N-14),0.13
6,CC(C)C[C@@H]1NC(=O)[C@H](CCCCN)NC(=O)[C@H](Cc2ccccc2)N(C)C(=O)[C@H](C)N(C)C(=O)[C@H](CCCNC(=N)N)NC(=O)[C@H](Cc2ccc(-c3ccccc3)cc2)NC(=O)[C@H](C(C)C)NC(=O)[C@H](Cc2c[nH]c3ccccc23)NC(=O)[C@H](CC(=O)O)NC(=O)[C@H](Cc2ccc(O)cc2)NC(=O)[C@H](CCC(N)=O)NC(=O)CSC[C@@H](C(=O)NCC(N)=O)NC(=O)[C@H](CO)NC(=O)[C@H](C(C)C)NC1=O [Example 1313] ({CH2CO}-QYDWV[Bip]R[NMeA][NMeF]KLVSCG-NH2; thioether N-14),0.24
7,CC(C)C[C@@H]1NC(=O)C(Cc2c[nH]c3ccccc23)NC(=O)[C@H](CC(=O)O)NC(=O)[C@H](Cc2ccc(O)cc2)NC(=O)[C@H](Cc2ccccc2)NC(=O)CSC[C@@H](C(=O)NCC(N)=O)NC(=O)[C@H](CO)NC(=O)[C@H](C(C)C)NC(=O)[C@H](CC(C)C)NC(=O)[C@H](CCCNC(=N)N)NC(=O)CN(C)C(=O)[C@H](C)N(C)C(=O)[C@H](CCCNC(=N)N)NC(=O)[C@H](Cc2ccc(-c3ccccc3)cc2)NC1=O (stereo partly drawn) [Example 1231] ({CH2CO}-FYD[ξW]L[Bip]R[NMeA][Sar]RLVSCG-NH2; thioether N-14),0.9
8,CC(C)C[C@@H]1NC(=O)[C@H](CC(N)=O)NC(=O)CN(C)C(=O)[C@H](C)N(C)C(=O)[C@H](C(C)C)NC(=O)[C@H](Cc2ccc(-c3ccccc3)cc2)NC(=O)[C@H](CC2CC2)NC(=O)[C@H](Cc2c[nH]c3ccccc23)NC(=O)[C@H](CC(=O)O)NC(=O)[C@H](Cc2ccc(O)cc2)NC(=O)[C@H](Cc2ccccc2)NC(=O)CSC[C@@H](C(=O)N[C@@H](C)C(N)=O)NC(=O)[C@H](CO)NC(=O)[C@H](C(C)C)NC1=O [Example 1155] ({CH2CO}-FYDW[Ala(cPr)][Bip]V[NMeA][Sar]NLVSCA-NH2; thioether N-14),0.81
9,CC(C)C[C@@H]1NC(=O)[C@H](Cc2c[nH]c3ccccc23)NC(=O)[C@H](CC(=O)O)NC(=O)[C@H](Cc2ccc(O)cc2)NC(=O)[C@H](Cc2ccccc2)NC(=O)CSC[C@@H](C(=O)N[C@@H](C)C(N)=O)NC(=O)[C@H](CO)NC(=O)[C@H](C(C)C)NC(=O)[C@H](CC(C)C)NC(=O)[C@H](CC(N)=O)NC(=O)[C@H]2C[C@H](N)CN2C(=O)[C@H](C)N(C)C(=O)[C@H](C(C)C)NC(=O)[C@H](Cc2ccc(-c3ccccc3)cc2)NC1=O [Example 1091] ({CH2CO}-FYDWL[Bip]V[NMeA][dPro(4S-NH2)]NLVSCA-NH2; thioether N-14),0.26
10,CC(C)C[C@@H]1NC(=O)[C@H](CCCNC(=N)N)NC(=O)[C@H](Cc2ccccc2)N(C)C(=O)[C@H](C)N(C)C(=O)[C@H](CCCNC(=N)N)NC(=O)[C@H](Cc2ccc(-c3ccccc3)cc2)NC(=O)[C@H](C(C)C)NC(=O)[C@H](Cc2c[nH]c3ccccc23)NC(=O)[C@H](CC(=O)O)NC(=O)[C@H](Cc2ccc(O)cc2)NC(=O)[C@H](Cc2ccccc2)NC(=O)CSC[C@@H](C(=O)N[C@@H](CCC(=O)O)C(N)=O)NC(=O)[C@H](CO)NC(=O)[C@H](C(C)C)NC1=O [Example 1105] ({CH2CO}-FYDWV[Bip]R[NMeA][NMeF]RLVSCE-NH2; thioether N-14),0.33
11,CCC[C@@H]1NC(=O)[C@H](Cc2c[nH]c3ccccc23)NC(=O)[C@H](CC(=O)O)NC(=O)[C@H](Cc2ccc(O)cc2)NC(=O)[C@H](Cc2ccccc2)NC(=O)CSC[C@@H](C(=O)NCC(N)=O)NC(=O)[C@H](CO)NC(=O)[C@H](C(C)C)NC(=O)[C@H](CC(C)C)NC(=O)[C@H](CCCNC(=N)N)NC(=O)[C@H](Cc2ccccc2)N(C)C(=O)[C@H](C)N(C)C(=O)[C@H](CCCNC(=N)N)NC(=O)[C@H](Cc2ccc(-c3ccccc3)cc2)NC1=O [Example 1335] ({CH2CO}-FYDW[Nva][Bip]R[NMeA][NMeF]RLVSCG-NH2; thioether N-14),0.14
12,CC(C)C[C@@H]1NC(=O)[C@H](CCCNC(=N)N)NC(=O)[C@H](Cc2ccccc2)N(C)C(=O)[C@H](C)N(C)C(=O)[C@H](CCCNC(=N)N)NC(=O)[C@H](Cc2ccc(-c3ccccc3)cc2)NC(=O)[C@H](C(C)C)NC(=O)[C@H](Cc2c[nH]c3ccccc23)NC(=O)[C@H](CC(=O)O)NC(=O)[C@H](Cc2ccc(C(=O)O)cc2)NC(=O)[C@H](Cc2cnc[nH]2)NC(=O)CSC[C@@H](C(=O)NCC(N)=O)NC(=O)[C@H](CO)NC(=O)[C@H](C(C)C)NC1=O [Example 1291] ({CH2CO}-H[Phe(4-COOH)]DWV[Bip]R[NMeA][NMeF]RLVSCG-NH2; thioether N-14),0.09
13,Cc1cccc(C[C@@H]2NC(=O)[C@H](CC(=O)O)NC(=O)[C@H](Cc3ccc(OCC(=O)O)cc3)NC(=O)[C@H](Cc3ccncc3)NC(=O)CSC[C@@H](C(=O)N[C@@H](CCN)C(N)=O)NC(=O)[C@H](CO)NC(=O)[C@H](C(C)(C)O)NC(=O)[C@H](CC3CCCCC3)NC(=O)[C@H](CCN)NC(=O)[C@H]3CCCN3C(=O)[C@H](C)N(C)C(=O)[C@H](Cc3ccc(OCC(=O)O)cc3)NC(=O)[C@H](Cc3ccc(-c4ccccc4)cc3)NC(=O)[C@H](Cc3ccc(OCC(=O)O)cc3)NC2=O)c1 [Example 1179] ({CH2CO}-[4Pal]Y(Carboxymethyl)D[Phe(3-Me)]Y(Carboxymethyl)[Bip]Y(Carboxymethyl)[NMeA][dP][Dab][Cha][Val(3-OH)]SC[Dab]-NH2; thioether N-14),0.08
14,CC(C)C[C@@H]1NC(=O)[C@H](CCCN)NC(=O)[C@H](Cc2ccccc2)N(C)C(=O)[C@H](C)N(C)C(=O)[C@H](CCCNC(=N)N)NC(=O)[C@H](Cc2ccc(-c3ccccc3)cc2)NC(=O)[C@H](C(C)C)NC(=O)[C@H](Cc2c[nH]c3ccccc23)NC(=O)[C@H](CC(=O)O)NC(=O)[C@H](Cc2ccc(O)cc2)NC(=O)[C@H](CC(N)=O)NC(=O)CSC[C@@H](C(=O)N[C@@H](CO)C(N)=O)NC(=O)[C@H]([C@@H](C)O)NC(=O)[C@H](C(C)C)NC1=O [Example 1353] ({CH2CO}-NYDWV[Bip]R[NMeA][NMeF][Orn]LVTCS-NH2; thioether N-14),0.09
15,CC(C)C[C@@H]1NC(=O)[C@H](Cc2c[nH]c3ccccc23)NC(=O)[C@H](CC(=O)O)NC(=O)[C@H](Cc2ccc(O)cc2)NC(=O)[C@H](Cc2ccccc2)NC(=O)CSC[C@@H](C(=O)N[C@@H](C)C(N)=O)NC(=O)[C@H](CO)NC(=O)[C@H](C(C)C)NC(=O)[C@H](CC(C)C)NC(=O)[C@H](CCC(=O)O)NC(=O)[C@H]2CCCN2C(=O)[C@H](C)N(C)C(=O)[C@H](CCC(=O)O)NC(=O)[C@H](Cc2ccc(-c3ccccc3)cc2)NC1=O [Example 1177] ({CH2CO}-FYDWL[Bip]E[NMeA][dP]ELVSCA-NH2; thioether N-14),0.24
